# Laboratory results reported in US10301263B2, “Anticonvulsant compound” (Royal Holloway and Bedford New College, priority 2014, dated 2019).
# Key:
# MES-induced seizures = experiment: Maximal electroshock test (MES); assay type: in vivo, mice; conditions: Mus musculus, ip
# Description: The MES is a model for generalized tonic-clonic seizures which provides an indication of a compound's ability to prevent seizure spread when all neuronal circuits in the brain are maximally active. Animals are pretreated with compounds (100-125 mg/kg) by i.p. injection. Seizure activity was induced by delivery of 60 Hz of alternating current (50 mA in mice, 150 in rats) for 0.2 s through corneal electrodes which had been primed with an electrolyte solution containing an anesthetic agent (0.5% tetracaine HCl). An animal is considered “protected” from MES-induced seizures upon abolition of the hind limb tonic extensor component of the seizure (Swinyard et al., 1995; White et al., 1995; White et al., 2007).
# corneal kindled CF1 mice [1] = experiment: Corneal kindled mouse model (CKM); assay type: in vivo; conditions: i.p.
# Description: This model involves the use of corneal kindled mouse model for prediction of efficacy in human partial seizures (Rowley and White, 2010). Adult male CF1 mice (18-25 g) mice were stimulated through corneal electrodes (3 mA, 60 Hz, 3 seconds) after administration of 0.5% tetracaine hydrochloride to each eye. This procedure was carried out twice daily for an average of 12 days.
# After 5-7-days stimulation-free period once the mice were fully kindled, the test compounds were administrated (100 mg/kg, i.p.). Mice in each group were then tested at various time points (0.25, 0.5, 1, 2, 4 hours) after drug dosing. Mice displaying a seizure score <3 are considered protected.
# AMPA receptors = experiment: AMPA receptor mediated current, AMPA receptors expressed in oocytes (FIG. 1); assay type: cell-based
# Description: Xenopus laevis oocytes were purchased from the European Xenopus Resource Centre, University of Portsmouth.
# The bath solutions were perfused at a rate of 10 ml/min.
# [2] = system: Metrazol-induced clonic seizures; experiment: Subcutaneous Metrazol seizure threshold test (scMET); assay type: in vivo, mice; conditions: i.p.
# Description: Subcutaneous injection of Metrazol produces clonic seizures in animals. […] Animals were pretreated with each compound (100 mg/kg) in a similar manner to the MES test. Seizure activity was induced by administration of Metrazol (CD97: 85 mg/kg mice; 70 mg/kg rats) into skin in the midline of the neck.
# [3] = system: 6 Hz corneal stimulation seizures in CF1 mice; experiment: 6 Hz psychomotor seizure test; assay type: in vivo; conditions: Mus musculus, ip, 32 mA for 3 s
# Description: Adult male CF1 mice (18-25 g) were pretreated intraperitoneally (i.p.) with each compound at 100-150 mg/kg. After pretreatment, each mouse was given a drop of 0.5% tetracaine hydrochloride to each eye, following by low-frequency (6 Hz) stimulation (32 mA) for 3 seconds delivered through corneal electrodes. Animals were manually restrained and released immediately following the stimulation and observed for the presence or absence of seizure activity at five time points (1/4, 1/2, 1, 2, and 4 hours). Typically, the 6 Hz stimulation results in a seizure characterized by a minimal clonic phase that is followed by stereotyped, automatistic behaviors, including twitching of the vibrissae, and Straub-tail. Animals not displaying such behaviors were considered protected.
# The inventors first employed a low frequency (6 Hz), long duration (3 s) corneal stimulation model because numerous second generation anti-epileptic drugs show poor seizure control in this assay (and so such a model may provide evidence of efficacy in drug resistant epilepsy). In this model, compounds are pre-administered to mice via i.p. injection and mice are challenged with sufficient current to elicit a psychomotor response (32 mA for 3 s) (Toman et al., 1952). The model causes forelimb clonus and then automatistic behavior characteristic of limbic epilepsy in humans. […]
# [4] = system: histone deacetylase (HDAC); experiment: HDAC activity assay (fluorescent kit, human nuclear enzyme extracts from HeLa cells); assay type: biochemical
# Description: FIG. 4b is a graph showing quantification of a histone deacetylase (HDAC) inhibition assay employing human nuclear enzyme extracts (from HeLa cells) as the source of HDAC activity shown as fitted dose-response curves for 4-BCCA;
# Histone deacetylase activity was analyzed by using an in vitro commercial assay kit, the HDAC fluorescent activity assay/drug discovery kit HDAC activity (Biomol, Plymouth Meeting, Pa.). The assay was conducted at room temperature according to the manufacturer's protocol, using Trichostatin A (a HDAC inhibitor; at 1 μM concentration) as a positive control. Data were derived from at least triplicate experiments with each experiment comprising at least duplicate measurements (n=6) normalized to controls (without VPA or fatty acids).
# [5] = system: rat entorhinal cortex-hippocampus slices; experiment: PTZ-induced epileptiform activity in entorhinal cortex-hippocampus slices (CA1 field recording); assay type: cell-based
# Description: The preparation of entorhinal cortex-hippocampus slices and electrophysiological recording in CA1 were described previously (Armand et al., 1998; Chang and Walker, 2011). In brief, male rats (50-150 g) were decapitated after killing by intraperitoneal injection with an overdose of pentobarbitone (500 mg/kg). The brain was removed and preserved in oxygenated ice-cold sucrose solution in mM: NaCl 87, KCl 2.5, MgCl2 7, CaCl2 0.5, NaH2PO4 1.25, NaHCO3 26.2 sucrose 75, glucose 3. Transverse slices (350 μm) were prepared with a vibratome (VIBRATOME® 1500, Intracel Ltd) and were then stored in an interface chamber containing artificial cerebrospinal fluid solution (aCSF) in mM: NaCl 119, KCl 2.5, MgSO4 1.3, CaCl2 2.5, NaH2PO4 1, NaHCO3 26.2 glucose 16.6. The slices were stored for over one hour. During the experiment, the slices were transferred from the interface chamber into a submerged recording chamber and continuously perfused with prewarmed (about 36° C.) oxygenated (95% O2, 5% CO2) aCSF. A field potential recording was made by placing a glass microelectrodes filled with aCSF solution in stratum radiatum of CA1. A bipolar stimulating electrode was positioned in the Schaffer collateral/commissural fiber pathway in stratum radiatum to confirm slice viability. […] Anticonvulsant effects were evaluated by measuring the frequency of the discharges every minute.
# corneal kindled CF1 mice [6] = conditions: corneal kindled mouse; cited from earlier work
# [7] = DSMV IV, 2000; cited from earlier work
# [8] = system: rat entorhinal cortex-hippocampus slices; conditions: PTZ-induced seizure-like activity in rat hippocampal slices; Chang et al., 2013; cited from earlier work
# [9] = system: Metrazol-induced clonic seizures; conditions: scMET; Rowley and White, 2010; cited from earlier work
SMILES,ED50 (MES-induced seizures) [mg/kg],EC50 value (corneal kindled CF1 mice [1]) [mg/kg],potency of AMPA receptors inhibition (as determined by IC50) relative to decanoic acid (DA) and 4-ethyloctanoic acid (4-EOA) (AMPA receptors),EC50 value [2] [mg/kg],ED50 [3] [mg/kg],HDAC inhibition ([4]; FIG. 4B dose-response),"HDAC inhibitory effect ([4]; upto 10 mM, HDAC extract derived from a human cell line)","epileptiform activity (frequency of PTZ-induced burst discharges) ([5]; PTZ 2 mM, K+ 6 mM, 20-40 minute treatment, n=5, 1 mM)",block in seizure activity ([5]; PTZ-induced seizure-like activity in rat hippocampal slices) [%],equivalent activity (to EC50) dose (corneal kindled CF1 mice [6]) [mg/kg],concentrations found in plasma [7] [µM],"IC50 ([4]; HDAC extract derived from a human cell line, read-out: IC50 against HDAC) [µM]",reduction in seizure activity [8] [%],equivalent effect (to EC50) dose [9] [mg/kg]
"CCCC[C@H]1CC[C@H](C(=O)O)CC1 [Compound 4-BCCA, trans-4-butylcyclohexane carboxylic acid]",100,44,comparable potency,~150,81,no HDAC inhibition,does not cause significant inhibitory effect,1.7±1.5 % of baseline,100,–,–,–,–,–
"CCCC(CCC)C(=O)O [valproic acid, 2-propylpentanoic acid]",–,–,–,–,–,–,–,–,–,174,400 to 700,2300,23,191
